Data on one compound can be found in patent US10213432B2, “Dosage regimen for a PI-3 kinase inhibitor” (NOVARTIS AG, priority 2012, dated 2019).

Molecules are shown by their SMILES. Read-outs that look alike come from different tables or passages of the source.

The subject of assay [1] is Hormone Receptor Positive (+) metastatic breast cancer. In kind it is in vivo, human. The conditions noted are these: in combination with letrozole 2.5 mg/day per oral. How it is done:
An open-label, randomized multi-institution clinical study using the hydrochloride salt of Compound A alone and in combination with the therapeutic agent letrozole for the treatment of post-menopausal patients with Hormone Receptor Positive (+) metastatic breast cancer is investigated. Patients are evaluated for safety profile/tolerability and preliminary antitumor effect.
Patients are included in the study if they meet the following criteria: at least 18 years of age, ECOG performance status 0-1, suffering from clinical stage 1V invasive mammary carcinoma (ER-positive, or PR-positive) by immunohistochemistry, life expectancy equal to or greater than 6 months, adequate hematologic, hepatic and renal function (ANC≥1500/mm^3, platelet count≥100,000 mm^3, HgB≥9 g/dL, creatine≤1.5×upper limits of normal, bilirubin≤1.5×upper limits of normal, SGOT, SGPT≤2.5×upper limits of normal if no liver metasis present or SGOT, SGPT alkaline phosphatase≤5×upper limits of normal if liver metasis present, capable of swallowing and retaining oral medication, disease free of prior invasive cancers for >5 years (exception of basal or squamous cancer of skin or cervical carcinoma in situ). Patients may receive concurrent radiation therapy to painful bone metastases or areas of impending bone fracture as long as radiation therapy is completed≤2 weeks prior to study and recovered from toxicity (≤grade 1) induced by this radiation treatment. Post-menopausal female subjects are defined prior to protocol enrollment by any of the following: Subjects at least 55 years of age; Subjects under 55 years of age and amenorrheic for at least 12 months or follicle-stimulating hormone (FSH) values[…] and estradiol levels≤20 IU/L; prior bilateral oophorectomy; prior radiation castration with amenorrhea for at least 6 months; current use of an LHRH agonist for more than 12 months.
Patients with the following mood disorders as judged by investigator or psychiatrist are also excluded: medically documented history of or active major depressive episode; bipolar disorder (I or II), obsessive-compulsive disorder, schizophrenia, a history of suicidal attempt or ideation, or homicidal ideation (immediate risk of doing harm to others); or ≥CTCAE grade 3 anxiety.
In the first stage of the study, safety and tolerability of the hydrochloride salt of Compound A is evaluated in combination with the therapeutic agent letrozole in post-menopausal patients with Hormone Receptor Positive (+) metastatic breast cancer is investigated. The maximum tolerated dose of the hydrochloride salt of Compound A […] is determined at dosages of 100 mg per oral daily, 80 mg per oral daily, and 50 mg per oral daily, in combination with letrozole administered at 2.5 mg/day per oral.
In the second stage of the study, the antitumor effect of the hydrochloride salt of Compound A in combination with letrozole for the treatment of post-menopausal patients with Hormone Receptor Positive (+) metastatic breast cancer is investigated. Patients are administered the hydrochloride salt of Compound A and letrozole at a daily dosage identified to be with in the MTD in the first stage (Arm A).
In one additional experimental arm (Arm C), Patients are administered a daily dosage of the hydrochloride salt of Compound A in the amount of 60, 80 or 100 mg per oral on Monday through Fridays only each week in combination with 2.5 mg/day per oral letrozole.
Secondary outcome for the second stage is progression free survival and response.
Following the above experiment, 51 patients were accrued, 49 progressed after aromatase inhibitor therapy. Median age was 56 years and 95% of patients ad bone metastasis and 70% visceral metastases.

The subject of another assay is solid tumors. Conditions: humans; Bendell et al., J. Clin. Oncology 2012; cited from earlier work.
[2] abbreviates: Arm C (31): 60, 80 or 100 mg per oral Monday through Fridays only.

Consider `Nc1cc(C(F)(F)F)c(-c2cc(N3CCOCC3)nc(N3CCOCC3)n2)cn1` [Compound A, 5-(2,6-di-morpholin-4-yl-pyrimidin-4-yl)-4-trifluoromethyl-pyridin-2-ylamine], for which, in assay [1] (Arm A (20): daily dosing), the “Median TTP” value is recorded as 4 (2-11) months, the “Patient outcomes: CR” value is 1, the “Patient outcomes: PD” value is reported as 7 and the “Patient outcomes: PR” value is listed as 1. Besides, the “Patient outcomes: SD” value in assay [1] (Arm A (20): daily dosing) was determined as 9. Besides, in assay [1] (setting [2]), the “Median TTP” value was “Not reached”, the “Patient outcomes: CR” value stood at 0, the “Patient outcomes: PD” value is listed as 8 and the “Patient outcomes: PR” value is 0. Also, the “Patient outcomes: SD” value in assay [1] (setting [2]) is listed as 4. Further, the “efficacy in the treatment of solid tumors” value in the assay with solid tumors was “has been demonstrated in humans”.
